{"source": "patent US10168342B2", "about": "“Lipid probes and uses thereof” (THE SCRIPPS RESEARCH INSTITUTE, priority 2015, dated 2019)", "experiment_in_all_cases": "isoTOP-ABPP mapping of AEA-DA-modified peptides in Neuro2a cells", "type_in_all_cases": "cell-based", "key": {"[1]": {"molecular_target": "T1, AEA-DA-modified peptides in Neuro2a cells (Mus musculus, UniProt P58281)", "T1 construct": "endogenous in cells; host or cells: Neuro2a", "T1 sequence (P58281 88-960)": "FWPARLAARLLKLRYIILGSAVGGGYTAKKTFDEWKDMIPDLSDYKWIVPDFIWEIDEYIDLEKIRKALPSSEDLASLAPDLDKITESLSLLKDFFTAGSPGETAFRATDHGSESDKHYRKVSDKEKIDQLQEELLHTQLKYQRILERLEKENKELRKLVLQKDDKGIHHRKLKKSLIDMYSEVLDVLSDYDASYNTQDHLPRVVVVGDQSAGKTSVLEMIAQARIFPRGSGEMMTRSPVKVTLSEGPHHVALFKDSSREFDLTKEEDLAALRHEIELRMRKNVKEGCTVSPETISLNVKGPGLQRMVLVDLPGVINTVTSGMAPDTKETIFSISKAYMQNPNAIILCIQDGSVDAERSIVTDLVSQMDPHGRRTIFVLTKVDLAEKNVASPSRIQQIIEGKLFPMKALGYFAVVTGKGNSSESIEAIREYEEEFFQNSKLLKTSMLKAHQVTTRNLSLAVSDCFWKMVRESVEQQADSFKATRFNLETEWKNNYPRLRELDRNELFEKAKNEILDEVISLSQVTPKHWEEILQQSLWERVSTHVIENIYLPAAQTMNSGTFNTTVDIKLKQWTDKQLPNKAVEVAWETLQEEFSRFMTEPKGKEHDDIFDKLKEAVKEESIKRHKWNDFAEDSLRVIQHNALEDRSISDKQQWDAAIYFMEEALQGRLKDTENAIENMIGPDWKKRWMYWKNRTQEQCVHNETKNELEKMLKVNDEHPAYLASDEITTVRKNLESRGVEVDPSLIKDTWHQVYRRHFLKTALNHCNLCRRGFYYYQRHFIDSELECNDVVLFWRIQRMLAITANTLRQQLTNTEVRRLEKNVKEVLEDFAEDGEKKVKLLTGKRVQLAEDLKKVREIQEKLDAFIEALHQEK", "conditions": "AEA-DA-modified peptide OPA1 P58281 801-819, SEQ ID NO 74; probe 100 μM, 12 replicates"}, "[2]": {"molecular_target": "T2, AEA-DA-modified peptides in Neuro2a cells (Mus musculus, UniProt Q8BVU5)", "T2 construct": "endogenous in cells; host or cells: Neuro2a", "T2 sequence (Q8BVU5 47-350)": "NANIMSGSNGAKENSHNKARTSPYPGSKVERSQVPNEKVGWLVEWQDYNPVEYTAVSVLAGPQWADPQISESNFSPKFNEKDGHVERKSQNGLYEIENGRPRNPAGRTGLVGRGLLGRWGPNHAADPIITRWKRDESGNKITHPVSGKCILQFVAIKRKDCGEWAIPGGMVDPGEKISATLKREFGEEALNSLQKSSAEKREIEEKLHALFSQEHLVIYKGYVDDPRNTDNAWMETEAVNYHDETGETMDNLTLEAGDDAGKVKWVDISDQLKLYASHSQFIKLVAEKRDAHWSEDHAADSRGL", "conditions": "AEA-DA-modified peptide NUDT9 Q8BVU5 230-242, SEQ ID NO 73; probe 100 μM, 12 replicates"}, "[3]": {"molecular_target": "T3, AEA-DA-modified peptides in Neuro2a cells (Mus musculus, UniProt P19157)", "T3 construct": "endogenous in cells; host or cells: Neuro2a", "T3 sequence (P19157 whole entry)": "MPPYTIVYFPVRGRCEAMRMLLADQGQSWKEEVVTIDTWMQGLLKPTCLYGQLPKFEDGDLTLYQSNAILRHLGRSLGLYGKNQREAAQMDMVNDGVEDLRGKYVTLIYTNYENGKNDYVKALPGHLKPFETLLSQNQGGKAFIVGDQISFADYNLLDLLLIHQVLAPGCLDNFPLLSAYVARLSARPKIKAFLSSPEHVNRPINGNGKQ", "conditions": "AEA-DA-modified peptide GSTP1 P19157 104-117, SEQ ID NO 46; probe 100 μM, 12 replicates"}, "[4]": {"molecular_target": "T4, AEA-DA-modified peptides in Neuro2a cells (Mus musculus, UniProt Q9Z2R6)", "T4 construct": "endogenous in cells; host or cells: Neuro2a", "conditions": "AEA-DA-modified peptide UNC119 Q9Z2R6 131-140, SEQ ID NO 117; probe 100 μM, 12 replicates"}, "[5]": {"molecular_target": "T5, AEA-DA-modified peptides in Neuro2a cells (Mus musculus, UniProt Q61425)", "T5 construct": "endogenous in cells; host or cells: Neuro2a", "T5 sequence (Q61425 13-314)": "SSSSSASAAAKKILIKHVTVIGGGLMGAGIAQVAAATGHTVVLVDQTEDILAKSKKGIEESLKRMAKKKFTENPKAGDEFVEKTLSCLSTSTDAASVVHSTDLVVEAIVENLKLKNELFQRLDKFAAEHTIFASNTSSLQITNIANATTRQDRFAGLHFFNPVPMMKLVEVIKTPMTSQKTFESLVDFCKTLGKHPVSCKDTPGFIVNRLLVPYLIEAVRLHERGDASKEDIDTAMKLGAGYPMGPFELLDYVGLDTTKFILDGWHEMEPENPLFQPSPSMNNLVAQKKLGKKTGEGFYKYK", "conditions": "AEA-DA-modified peptide HADH Q61425 250-272, SEQ ID NO 47; probe 100 μM, 12 replicates"}, "[6]": {"molecular_target": "T6, AEA-DA-modified peptides in Neuro2a cells (Mus musculus, UniProt Q8R127)", "T6 construct": "endogenous in cells; host or cells: Neuro2a", "T6 sequence (Q8R127 whole entry)": "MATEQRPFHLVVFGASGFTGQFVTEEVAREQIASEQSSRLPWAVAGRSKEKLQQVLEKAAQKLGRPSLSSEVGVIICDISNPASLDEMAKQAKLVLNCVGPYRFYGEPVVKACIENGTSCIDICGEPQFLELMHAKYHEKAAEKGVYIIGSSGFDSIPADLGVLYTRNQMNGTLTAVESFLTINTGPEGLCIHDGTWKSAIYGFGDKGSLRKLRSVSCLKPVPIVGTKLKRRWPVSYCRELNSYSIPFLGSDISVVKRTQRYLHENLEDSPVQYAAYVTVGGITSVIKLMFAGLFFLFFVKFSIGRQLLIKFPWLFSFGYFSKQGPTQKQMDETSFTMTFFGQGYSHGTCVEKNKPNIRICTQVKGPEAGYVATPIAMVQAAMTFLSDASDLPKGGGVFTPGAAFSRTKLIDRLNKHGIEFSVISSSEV", "conditions": "AEA-DA-modified peptide SCCPDH Q8R127 145-168, SEQ ID NO 96; probe 100 μM, 12 replicates"}, "[7]": {"molecular_target": "T7, AEA-DA-modified peptides in Neuro2a cells (Mus musculus, UniProt Q8R2Y8)", "T7 construct": "endogenous in cells; host or cells: Neuro2a", "T7 sequence (Q8R2Y8 whole entry)": "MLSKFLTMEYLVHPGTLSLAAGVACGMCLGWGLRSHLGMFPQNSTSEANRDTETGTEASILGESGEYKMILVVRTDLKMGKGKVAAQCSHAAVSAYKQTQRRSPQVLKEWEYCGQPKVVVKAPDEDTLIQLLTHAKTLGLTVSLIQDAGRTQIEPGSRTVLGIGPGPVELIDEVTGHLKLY", "conditions": "AEA-DA-modified peptide PTRH2 Q8R2Y8 35-69, SEQ ID NO 93; probe 100 μM, 12 replicates"}, "[8]": {"molecular_target": "T8, AEA-DA-modified peptides in Neuro2a cells (Mus musculus, UniProt Q9D771)", "T8 construct": "endogenous in cells; host or cells: Neuro2a", "T8 sequence (Q9D771 whole entry)": "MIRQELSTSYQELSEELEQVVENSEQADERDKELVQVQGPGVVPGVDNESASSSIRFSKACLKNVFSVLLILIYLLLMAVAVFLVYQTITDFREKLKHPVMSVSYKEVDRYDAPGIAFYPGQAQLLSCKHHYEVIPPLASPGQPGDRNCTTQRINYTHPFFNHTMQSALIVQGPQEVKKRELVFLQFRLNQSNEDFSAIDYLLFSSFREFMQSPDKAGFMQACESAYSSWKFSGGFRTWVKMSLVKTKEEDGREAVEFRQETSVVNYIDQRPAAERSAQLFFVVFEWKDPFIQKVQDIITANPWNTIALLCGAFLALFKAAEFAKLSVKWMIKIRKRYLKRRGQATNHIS", "conditions": "AEA-DA-modified peptide TMEM206 Q9D771 247-260, SEQ ID NO 113; probe 100 μM, 12 replicates"}, "[9]": {"molecular_target": "T9, AEA-DA-modified peptides in Neuro2a cells (Mus musculus, UniProt O55234)", "T9 construct": "endogenous in cells; host or cells: Neuro2a", "T9 sequence (O55234 60-264)": "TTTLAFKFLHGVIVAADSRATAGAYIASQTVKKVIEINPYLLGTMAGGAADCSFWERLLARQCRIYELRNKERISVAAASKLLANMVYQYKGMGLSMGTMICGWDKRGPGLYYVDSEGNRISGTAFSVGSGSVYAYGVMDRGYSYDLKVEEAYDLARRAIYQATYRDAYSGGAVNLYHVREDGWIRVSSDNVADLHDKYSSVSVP", "conditions": "AEA-DA-modified peptide PSMB5 O55234 141-151, SEQ ID NO 91; probe 100 μM, 12 replicates"}, "[10]": {"molecular_target": "T10, AEA-DA-modified peptides in Neuro2a cells (Mus musculus, UniProt Q62351)", "T10 construct": "endogenous in cells; host or cells: Neuro2a", "T10 sequence (Q62351 whole entry)": "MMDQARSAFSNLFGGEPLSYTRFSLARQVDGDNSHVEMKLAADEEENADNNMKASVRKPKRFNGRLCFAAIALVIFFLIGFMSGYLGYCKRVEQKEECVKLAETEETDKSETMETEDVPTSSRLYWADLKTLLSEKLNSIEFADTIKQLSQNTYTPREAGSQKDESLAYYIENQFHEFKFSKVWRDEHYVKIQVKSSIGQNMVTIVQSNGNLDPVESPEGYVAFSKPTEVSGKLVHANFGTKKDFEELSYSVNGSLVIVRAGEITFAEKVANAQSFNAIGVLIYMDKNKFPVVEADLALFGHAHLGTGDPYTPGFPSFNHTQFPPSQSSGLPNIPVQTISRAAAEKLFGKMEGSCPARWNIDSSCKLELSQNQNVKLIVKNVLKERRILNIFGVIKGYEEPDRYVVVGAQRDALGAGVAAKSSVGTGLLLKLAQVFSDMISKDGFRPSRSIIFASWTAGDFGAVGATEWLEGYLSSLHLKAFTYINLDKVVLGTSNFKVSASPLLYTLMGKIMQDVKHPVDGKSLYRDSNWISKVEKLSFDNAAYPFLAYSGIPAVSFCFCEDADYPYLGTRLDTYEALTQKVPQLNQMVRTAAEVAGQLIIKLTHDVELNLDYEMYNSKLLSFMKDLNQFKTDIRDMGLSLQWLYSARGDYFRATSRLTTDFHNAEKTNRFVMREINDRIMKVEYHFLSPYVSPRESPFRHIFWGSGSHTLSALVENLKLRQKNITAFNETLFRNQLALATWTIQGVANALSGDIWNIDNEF", "conditions": "AEA-DA-modified peptide TFRC Q62351 7-23, SEQ ID NO 110; probe 100 μM, 12 replicates"}, "[11]": {"molecular_target": "T11, AEA-DA-modified peptides in Neuro2a cells (Mus musculus, UniProt Q9DCC8)", "T11 construct": "endogenous in cells; host or cells: Neuro2a", "T11 sequence (Q9DCC8 whole entry)": "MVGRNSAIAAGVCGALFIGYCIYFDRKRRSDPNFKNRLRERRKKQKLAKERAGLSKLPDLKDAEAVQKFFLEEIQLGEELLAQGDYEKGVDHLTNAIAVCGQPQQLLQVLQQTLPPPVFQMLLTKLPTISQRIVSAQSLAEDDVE", "conditions": "AEA-DA-modified peptide TOMM20 Q9DCC8 69-89, SEQ ID NO 115; probe 100 μM, 12 replicates"}, "[12]": {"molecular_target": "T12, AEA-DA-modified peptides in Neuro2a cells (Mus musculus, UniProt Q9Z0V8)", "T12 construct": "endogenous in cells; host or cells: Neuro2a", "T12 sequence (Q9Z0V8 whole entry)": "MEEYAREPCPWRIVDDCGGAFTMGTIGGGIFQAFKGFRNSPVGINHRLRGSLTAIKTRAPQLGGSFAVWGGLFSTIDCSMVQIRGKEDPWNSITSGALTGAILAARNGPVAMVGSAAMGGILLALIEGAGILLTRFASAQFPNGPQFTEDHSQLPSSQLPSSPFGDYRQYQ", "conditions": "probe 100 μM, 12 replicates"}}}
{"smiles": "C#CCCCC1(CC/C=C\\C/C=C\\C/C=C\\CCCC(=O)NCCO)N=N1", "note": "[AEA-DA, (5Z,8Z,11Z)-N-(2-hydroxyethyl)-14-(3-(pent-4-yn-1-yl)-3H-diazirin-3-yl)tetradeca-5,8,11-trienamide]", "values": [{"measurement": "Times observed", "setting": "[1]", "value": 2}, {"measurement": "Times observed", "setting": "[2]", "value": 7}, {"measurement": "Times observed", "setting": "[3]", "value": 4}, {"measurement": "Times observed", "setting": "[4]", "value": 3}, {"measurement": "Times observed", "setting": "[5]", "value": 10}, {"measurement": "Times observed", "setting": "[6]", "value": 11}, {"measurement": "Times observed", "setting": "[7]", "value": 2}, {"measurement": "Times observed", "setting": "[8]", "value": 2}, {"measurement": "Times observed", "setting": "[9]", "value": 11}, {"measurement": "Times observed", "setting": "[10]", "value": 2}, {"measurement": "Times observed", "setting": "[11]", "value": 7}, {"measurement": "Times observed", "setting": "[12]; AEA-DA-modified peptide TIMM17A Q9Z0V8 13-36, SEQ ID NO 111", "value": 9}, {"measurement": "Times observed", "setting": "[12]; AEA-DA-modified peptide TIMM17A Q9Z0V8 85-107, SEQ ID NO 112", "value": 4}]}
